Reference: patent publication US20260125357A1, “LACTATE ENHANCING COMPOUNDS AND USES THEREOF” (GLIAPHARM SA, priority 2022, published 2026)

Tests used:
[1] = system: mice injected with streptozotocin; test: Inhibitory Avoidance in streptozotocin ICV injection model of Alzheimer's disease; assay type: in vivo, mouse; details: 1 day after training, vs Veh
Procedure: Craniotomies are performed on isoflurane-anesthetized mice for injections of Veh or streptozotocin in cerebral ventricles (coordinates: −0.5 mm (to bregma), lateral+/−1.0 mm (to midline), ventral −2.2 mm (to dura)) (Kelliny S. et al., Molecular Neurobiology, 2021). A solution composed of Veh (0.9% NaCl) or streptozotocin (5 mg/kg) prepared in 1 μl artificial cerebrospinal fluid solution (aCSF, 20 mM citrate buffer, pH 4.2) is injected in both cerebral ventricles using Hamilton micro syringe at a constant speed of 100-200 nl/min. After injection, skin of the skull is sutured, and mice is monitored closely and receives analgesic treatment for at least 4 days. After mice had fully recovered from surgery, memory tests including Morris Water Maze (MWM), Inhibitory Avoidance (IA) and Novel Object Recognition (NOR), as described below, are performed. […]
Inhibitory avoidance (IA) test is a well-established memory paradigm in rodents that measures contextual memory associated with a mild electrical footshock in a specific context (the dark compartment of the IA chamber). […] Memory retention was measured at 24 h after training by placing the mouse back into the lit compartment and recording its latency (in seconds) to enter the dark compartment. […]

[2] = system: primary astrocytes; test: Extracellular medium acidification (SNARF5) assay in astrocytes; assay type: cell-based; details: Mus musculus, Astrocyte; astrocytes in vitro; compounds 10 nM to 30 μM; read-out: Activity (EC50 class, extracellular medium acidification SNARF5)
Procedure: To assess for the effect of the compounds of the invention, those were tested in primary mouse astrocytes and astrocytes differentiated from human-derived induced pluripotent stem cells (iPSCs). Secretion of lactate was measured indirectly through the acidification of extracellular medium using extracellular pH sensor SNARE-5F-(AND-6)-CAR (SNARF5) as described below.
Primary cultures of cerebrocortical astrocytes were obtained from 1 to 2-day-old OF1 mouse pups (Charles River Laboratories). Briefly, cortices were isolated and minced in small pieces under a dissecting microscope. The cells were incubated for 30 min at 37° C. in a solution containing 20 U/ml papain, 1 mM L-cysteine and 10 kU/ml DNase I. After dissociation, papain activity was stopped by the addition of fetal calf serum (FCS). Single-cell suspension was then obtained by mechanical dissociation, which consisted in cells trituration in a DMEM D7777 medium supplemented with 44 mm NaHCO3, 10 ml/L antibiotic/antimycotic solution and 10% FCS. The cells were seeded at an average density of ˜10′000 cells/cm^2 on poly-D-lysine coated 96- or 12-well culture plates, depending on their use, and grown in DMEM D7777 medium supplemented with 44 mm NaHCO3, 10 ml/L antibiotic/antimycotic solution and 10% FCS at 37° C. in a humidified atmosphere containing 5% CO2/95% air. Culture medium was renewed twice a week. Cells were stimulated and harvested between DIV14 and DIV17, when confluence and cell growth were optimal.
Secretion of lactate was measured indirectly through the acidification of extracellular medium using extracellular pH sensor SNARF-5F-(AND-6)-CAR (SNARF5). After washing cells twice with stimulation medium (DMEM (D5030, Sigma), 1 mM […], and 5 mM Glucose, pH 7.4) at 37° C., cells were stimulated with compounds at a final concentration ranging from 10 nM to 30 μM in 50 μl per well of stimulation medium supplemented with 10 μM of SNARF5 (Life Technologies Corporation). Each compound was tested in two different plates for duplicates. After 30, 60 and 90 min stimulation, fluorescence was read at exc. (excitation) 480 nm/emm. (emission) 580 nm and at exc 480 nm/emm. 630 nm. The ratio of fluorescence between 630 nm and 580 emission values, which is proportional to extracellular pH, was calculated. In each plate, 8 wells were used for negative controls (DMSO 0.1%) and 8 wells were used for positive controls (CCCP 2 μM in DMSO). Results are shown as % of positive control effect (0% and 100% being activities of the Veh and positive control, respectively).

[3] = system: human iPSC-derived astrocytes; test: Uptake of 2-DG in human iPSC-derived astrocytes; assay type: cell-based; details: treated for 1.5 hours
Procedure: Astrocytes grown on 12-well plates and transfected with either scramble siRNA or GLUT1 siRNA were used. 1 day after having replaced transfection medium (DIV13), 2DG uptake was measured after treatment for 30 min with Vehicle (0.1% DMSO) or with the compound of the invention (1) to (5) (concentrations of 0.1 to 10 μM). During treatment, 1 mM 2DG was added to the medium for assessment of 2DG uptake. At the end of the stimulation, medium was removed and replaced with 150 μl NaOH 0.1M, and stored at −20° C. After thawing, cells were collected using cell scraper and heated for 40 min at 85° C. Then, 150 ul HCl 0.1M and TAE buffer 200 mM was added to each condition. 20 μl were added to a transparent 96-well plate and 2DG was quantified by addition of a reaction solution containing 50 mM TAE, 50 mM KCl, 0.02% BSA, 0.1 mM NADP, 0.2 U/ml diaphorase, 2 mM resazurin and 20 U/ml glucose-6-phosphate dehydrogenase. Concentration of 2DG in samples were calculated by comparison with standard curve of deoxy-glucose-6-phophate ranging from 0 to 1 nmoles.
Human iPSC-derived astrocytes were purchased from NCardia (NCyte Astrocytes) and were plated at a density of ˜10′000 cells/cm^2 in 96-well or 12-well plates, according to the manufacturer's instructions and using the recommended media. […] Uptake of 2-DG and release of lactate were quantified as described previously.

EC50 [2]: < 1000 nM
Compound: COc1cc2ccnc(Nc3ccc(S(C)(=O)=O)cc3)c2cc1OC [Compound 2, 6,7-dimethoxy-N-(4-methylsulfonylphenyl)isoquinolin-1-amine]
memory in the Inhibitory Avoidance ([1]; 10 mg/kg): significantly higher | memory in the Inhibitory Avoidance ([1]; 30 mg/kg): significantly higher | uptake of 2-DG [3]: increased uptake of 2-DG
